{
  "source": "patent US20240342171A1",
  "about": "“DISCOVERY OF A F-ATP SYNTHASE INHIBITOR FOR THE TREATMENT OF MYCOBACTERIUM ABSCESSUS DISEASES” (priority 2021, published 2024)",
  "origin": "cited, not measured here",
  "key": {"M. abscessus": {"tested_on": "M. abscessus", "settings": "for mode of action against M. abscessus: background statement; for MIC of clinically used anti-M. abscessus drugs: Brown-Elliott et al. 2016"}, "[1]": {"settings": "Hotra et al. 2020"}, "[2]": {"settings": "mouse liver microsomes; Hotra et al. 2020"}},
  "data": [
    {"smiles": "COc1nc2ccc(Br)cc2cc1[C@@H](c1ccccc1)[C@@](O)(CCN(C)C)c1cccc2ccccc12", "note": "[BDQ, bedaquiline]", "values": [
      {"measurement": "mode of action against M. abscessus", "setting": "M. abscessus", "result": "mostly bacteriostatic"}
    ]},
    {"smiles": "CC(C)/N=c1\\cc2n(-c3ccc(Cl)cc3)c3ccccc3nc-2cc1Nc1ccc(Cl)cc1", "note": "[CFZ, clofazimine]", "values": [
      {"measurement": "MIC50", "setting": "M. abscessus; Ferro et al. 2016", "result": 6.8, "unit": "µM"},
      {"measurement": "mode of action against M. abscessus", "setting": "M. abscessus", "result": "mostly bacteriostatic"}
    ]},
    {"smiles": "CCNc1cc(C)nc(Nc2ccc(NC(=O)c3cccc(Br)c3)cc2)n1", "note": "[GaMF1]", "values": [
      {"measurement": "c log P", "setting": "[1]", "result": 4.37},
      {"measurement": "metabolic stability", "setting": "[2]", "result": "good metabolic stability"}
    ]},
    {"smiles": "COc1cc([C@](O)(CCN(C)C)[C@@H](c2cc3cc(Br)ccc3nc2OC)c2cc(OC)nc(OC)c2OC)cc(OC)n1", "note": "[TBAJ876]", "values": [
      {"measurement": "mode of action against M. abscessus", "setting": "M. abscessus", "result": "mostly bacteriostatic"}
    ]},
    {"smiles": "NCC[C@H](O)C(=O)N[C@@H]1C[C@H](N)[C@@H](O[C@H]2O[C@H](CN)[C@@H](O)[C@H](O)[C@H]2O)[C@H](O)[C@H]1O[C@H]1O[C@H](CO)[C@@H](O)[C@H](N)[C@H]1O", "note": "[amikacin]", "values": [
      {"measurement": "MIC of clinically used anti-M. abscessus drugs", "setting": "M. abscessus; Ferro et al. 2016", "result": 55, "unit": "µM"}
    ]},
    {"smiles": "CO[C@@]1(NC(=O)Cc2cccs2)C(=O)N2C(C(=O)O)=C(COC(N)=O)CS[C@@H]21", "note": "[cefocetin]", "values": [
      {"measurement": "MIC50 of first line drugs", "setting": "M. abscessus; […]", "result": 43, "unit": "µM"}
    ]},
    {"smiles": "CO[C@@]1(NC(=O)Cc2cccs2)C(=O)N2C(C(=O)O)=C(COC(N)=O)CS[C@@H]21", "note": "[cefoxitin]", "values": [
      {"measurement": "MIC of clinically used anti-M. abscessus drugs", "setting": "M. abscessus; Ferro et al. 2016", "result": 38, "unit": "µM"}
    ]},
    {"smiles": "CO[C@H]1/C=C/O[C@@]2(C)Oc3c(C)c(O)c4c(c3C2=O)C2=NC3(CCN(CC(C)C)CC3)NC2=C(NC(=O)/C(C)=C\\C=C\\[C@H](C)[C@H](O)[C@@H](C)[C@@H](O)[C@@H](C)[C@H](OC(C)=O)[C@@H]1C)C4=O", "note": "[rifabutin]", "values": [
      {"measurement": "MIC", "setting": "M. abscessus", "result": "1 to 4", "unit": "µM"}
    ]}
  ]
}
